From patent US5536723A, “S-nitroso derivatives of hydrazinoacetic acids, 1-[(acylthio and (mercapto)-1-oxoalkyl]-1,2,34-Tetrahydroquinoline-2-carboxylic acids and alanyl prolines and isoquinolines” (Brigham & Women's Hospital, priority 1994, dated 1996)

Columns and labels:
[1] = tested on: bovine femoral artery, contraction to angiotensin I; assay: contraction of the bovine femoral artery to angiotensin I; settings: for Contraction to Agonist: Angiotensin I
Method: The data are expressed as a percentage of the maximal response to norepinephrine (10^-6 M) and are shown as mean ±SEM in each group (n=7).
(§1) Blood Vessel Preparation. Bovine coronary or femoral arteries were obtained from an abattoir immediately after sacrifice of two- to four-week-old calves. Immediately after removal, the vessel was placed in ice-cold physiologic salt solution (PSS) containing 118.3 mM NaCl, 4.7 mM KCl, 2.5 mM CaCl2, 1.2 mM MgSO4, 1.2 mM KH2 PO4, 25.0 mM NaHCO3, 11.1 mM glucose, and 0.026 mM calcium disodium (ethylenedinitrilo)-tetraacetate. The vessels were then cleaned of adventitial tissue and cut into rings of approximately 5 mm lengths. When called for by the protocol, endothelium was removed from a ring by gently rubbing the luminal surface with a watchmaker's forceps. Vascular rings with intact endothelium were then suspended in organ chambers containing 25 ml of PSS at 37° aerated with 95% O2 -5% CO2. The rings were connected to force transducers (Grass FT03C, Quincy, Mass.) and changes in isometric force recorded continuously (Grass Polygraph Model 79B) over a period of 90 minutes. The optimal length-tension relationship was determined for each ring by observing the response to 10^-6 M norepinephrine after increments in tension of 0.5 gm. The functional integrity of the endothelium was assessed by contracting the vessel with 10^-6 M norepinephrine and then observing the response to 3×10^-7 M acetylcholine chloride.

[2] = tested on: bovine femoral artery, contraction to angiotensin II; assay: contraction of the bovine femoral artery to angiotensin II; settings: for Contraction to Agonist: Angiotensin II
Method: The data are expressed as a percentage of the maximal response to norepinephrine (10^-4 M) and are shown as mean ±SEM in each group (n=6).
as §1

bovine coronary artery = assay: relaxation of isolated bovine coronary artery rings contracted with potassium chloride; settings: 40 mM
Description: FIG. 5 depicts a graph showing the relaxation to sodium nitroprusside in the bovine coronary artery in the presence (o; n=7) or absence (; n:12) of a subthreshhold dose of S-nitrosocaptopril. The data are expressed as a percentage of the initial tension generated by potassium chloride (4×10^-2 M; coronary arteries) and are shown as mean ±SEM in each group.
as §1
Thus, to study vasodilating agents in this tissue the vessels were first contracted with potassium chloride (40 mM). Relaxations are expressed as a percent of the concentration to 40 mM potassium chloride.
Relaxations to S-nitrosocaptopril were inhibited by the antagonist of soluble guanylate cyclase, methylene blue (FIG. 4). Sodium nitroprusside induced dose-dependent relaxations of contractions to potassium chloride. The relaxation to sodium nitroprusside was inhibited by subthreshold doses of S-nitrosocaptopril (FIG. 5).

[3] = -Log M 6, Sar 10^-7 M, * p < 0.05
[4] = -Log M 6.5, Sar 10^-7 M, * p < 0.05
[5] = -Log M 7, Sar 10^-7 M, * p < 0.05
[6] = -Log M 7.5, Sar 10^-7 M, * p < 0.05
[7] = -Log M 8, Sar 10^-7 M, * p < 0.05
[8] = saralasin, lower concentrations than 10^-8 M

CNCC(=O)N[C@@H](CCCN=C(N)N)C(=O)N[C@H](C(=O)N[C@@H](Cc1ccc(O)cc1)C(=O)N[C@H](C(=O)N[C@@H](Cc1cnc[nH]1)C(=O)N1CCC[C@H]1C(=O)N[C@@H](C)C(=O)O)C(C)C)C(C)C [saralasin]
Contraction to Agonist [1, 3]: 0.9 ± 0.9 percentage of the maximal cont
Contraction to Agonist ([1]; -Log M 6, Sar 10^-8 M): 35.5 ± 7.0 percentage of the maximal cont
Contraction to Agonist ([1]; -Log M 6, Sar 10^-9 M): 25.6 ± 13.0 percentage of the maximal cont
Contraction to Agonist [1, 4]: 0 percentage of the maximal cont
Contraction to Agonist ([1]; -Log M 6.5, Sar 10^-8 M): 35.7 ± 22.1 percentage of the maximal cont
Contraction to Agonist ([1]; -Log M 6.5, Sar 10^-9 M): 31.4 ± 10.7 percentage of the maximal cont
Contraction to Agonist [1, 5]: 0 percentage of the maximal cont
Contraction to Agonist ([1]; -Log M 7, Sar 10^-8 M, * p < 0.05): 19.6 ± 7.0 percentage of the maximal cont
Contraction to Agonist ([1]; -Log M 7, Sar 10^-9 M): 33.0 ± 12.6 percentage of the maximal cont
Contraction to Agonist [1, 6]: 0 percentage of the maximal cont
Contraction to Agonist ([1]; -Log M 7.5, Sar 10^-8 M, * p < 0.05): 16.3 ± 9.4 percentage of the maximal cont
Contraction to Agonist ([1]; -Log M 7.5, Sar 10^-9 M): 22.6 ± 10.1 percentage of the maximal cont
Contraction to Agonist [1, 7]: 0 percentage of the maximal cont
Contraction to Agonist ([1]; -Log M 8, Sar 10^-8 M): 7.9 ± 7.9 percentage of the maximal cont
Contraction to Agonist ([1]; -Log M 8, Sar 10^-9 M): 3.9 ± 1.5 percentage of the maximal cont
Contraction to Agonist ([1]; -Log M 8.5, Sar 10^-7 M): 0 percentage of the maximal cont
Contraction to Agonist ([1]; -Log M 8.5, Sar 10^-8 M): 1.6 ± 1.6 percentage of the maximal cont
Contraction to Agonist ([1]; -Log M 8.5, Sar 10^-9 M): 0 percentage of the maximal cont
Contraction to Agonist ([1]; -Log M 9, Sar 10^-7 M): 0 percentage of the maximal cont
Contraction to Agonist ([1]; -Log M 9, Sar 10^-8 M): 0 percentage of the maximal cont
Contraction to Agonist ([1]; -Log M 9, Sar 10^-9 M): 0 percentage of the maximal cont
effect of saralasin on contractions to angiotensin I (in words) ([1]; saralasin 10^-7 M): attenuated contractions
effect of saralasin on contractions to angiotensin I (in words) ([1]; saralasin 10^-8 M): inhibited contractions to angiotensin I
effect of saralasin on contractions to angiotensin I (in words) [1, 8]: no effect
Contraction to Agonist [2, 3]: 6.0 percentage of the maximal cont
Contraction to Agonist ([2]; -Log M 6, Sar 10^-8 M): 32.8 ± 21.0 percentage of the maximal cont
Contraction to Agonist ([2]; -Log M 6, Sar 10^-9 M): 51.8 ± 18.8 percentage of the maximal cont
Contraction to Agonist [2, 4]: 9.2 ± 5.3 percentage of the maximal cont
Contraction to Agonist ([2]; -Log M 6.5, Sar 10^-8 M): 32.8 ± 20.4 percentage of the maximal cont
Contraction to Agonist ([2]; -Log M 6.5, Sar 10^-9 M): 51.8 ± 18.8 percentage of the maximal cont
Contraction to Agonist [2, 5]: 3.2 ± 1.8 percentage of the maximal cont
Contraction to Agonist ([2]; -Log M 7, Sar 10^-8 M): 32.4 ± 17.3 percentage of the maximal cont
Contraction to Agonist ([2]; -Log M 7, Sar 10^-9 M): 51.8 ± 18.8 percentage of the maximal cont
Contraction to Agonist [2, 6]: 2.8 ± 2.8 percentage of the maximal cont
Contraction to Agonist ([2]; -Log M 7.5, Sar 10^-8 M): 24.0 ± 13.8 percentage of the maximal cont
Contraction to Agonist ([2]; -Log M 7.5, Sar 10^-9 M): 43.4 ± 16.9 percentage of the maximal cont
Contraction to Agonist [2, 7]: 1.7 ± 1.7 percentage of the maximal cont
Contraction to Agonist ([2]; -Log M 8, Sar 10^-8 M): 10.7 ± 8.1 percentage of the maximal cont
Contraction to Agonist ([2]; -Log M 8, Sar 10^-9 M): 34.0 ± 12.9 percentage of the maximal cont
Contraction to Agonist ([2]; -Log M 8.5, Sar 10^-7 M): 0 percentage of the maximal cont
Contraction to Agonist ([2]; -Log M 8.5, Sar 10^-8 M): 0.9 ± 0.9 percentage of the maximal cont
Contraction to Agonist ([2]; -Log M 8.5, Sar 10^-9 M): 18.5 ± 9.6 percentage of the maximal cont
Contraction to Agonist ([2]; -Log M 9, Sar 10^-7 M): 0 percentage of the maximal cont
Contraction to Agonist ([2]; -Log M 9, Sar 10^-8 M): 0 percentage of the maximal cont
Contraction to Agonist ([2]; -Log M 9, Sar 10^-9 M): 2.4 ± 1.2 percentage of the maximal cont
effect of saralasin on contractions to angiotensin II (in words) ([2]; saralasin 10^-7 M): attenuated contractions
effect of saralasin on contractions to angiotensin II (in words) [2, 8]: no effect

angiotensin I: agonist; converted by ACE to angiotensin II by removal of the carboxy terminal His-Leu (DRVYIHPFHL; Angiotensin-1; UniProt P01019 25-34, looked up)
Contraction to Agonist ([1]; -Log M 6, Sar 0 (control)): 45.3 ± 13.5 percentage of the maximal cont
Contraction to Agonist ([1]; -Log M 6.5, Sar 0 (control)): 42.5 ± 13.4 percentage of the maximal cont
Contraction to Agonist ([1]; -Log M 7, Sar 0 (control)): 38.6 ± 15.9 percentage of the maximal cont
Contraction to Agonist ([1]; -Log M 7.5, Sar 0 (control)): 27.7 ± 12.7 percentage of the maximal cont
Contraction to Agonist ([1]; -Log M 8, Sar 0 (control)): 12.6 ± 11.4 percentage of the maximal cont
Contraction to Agonist ([1]; -Log M 8.5, Sar 0 (control)): 3.3 ± 5.9 percentage of the maximal cont
Contraction to Agonist ([1]; -Log M 9, Sar 0 (control)): 0 percentage of the maximal cont
maximum contraction response to angiotensin I ([1]; n=11): 4.4 ± 1.6 g

angiotensin II: powerful pressor agent; agonist (DRVYIHPF; Angiotensin-2; UniProt P01019 25-32, looked up)
Contraction to Agonist ([2]; -Log M 6, Sar 0 (control)): 57.9 ± 3.1 percentage of the maximal cont
Contraction to Agonist ([2]; -Log M 6.5, Sar 0 (control)): 57.1 ± 3.1 percentage of the maximal cont
Contraction to Agonist ([2]; -Log M 7, Sar 0 (control)): 47.2 ± 2.9 percentage of the maximal cont
Contraction to Agonist ([2]; -Log M 7.5, Sar 0 (control)): 40.3 ± 2.6 percentage of the maximal cont
Contraction to Agonist ([2]; -Log M 8, Sar 0 (control)): 28.8 ± 1.7 percentage of the maximal cont
Contraction to Agonist ([2]; -Log M 8.5, Sar 0 (control)): 11.8 ± 1.1 percentage of the maximal cont
Contraction to Agonist ([2]; -Log M 9, Sar 0 (control)): 0 percentage of the maximal cont
maximum contraction response to angiotensin II ([2]; n=6): 6.4 ± 2.5 g
EC50 ([2]; n=6, read-out: average ED50 of contraction to angiotensin II): 8.3 nM
maximum response to angiotensin II ([2]; without S-nitrosocaptopril, n=5): 55.8±6.9 % of the maximal response to norepinephrine

[Cl-].[K+] [potassium chloride]
stable contraction induced by potassium chloride (bovine coronary artery): 7.3 ± 4.3 g
